Data as given in ChEMBL document CHEMBL5724696, “Autophagy assay results for EUbOPEN Chemogenomics Library” (2024).
Where “and” joins values, the source holds several entries; their conditions need not be identical. Equal values may be shown once.

Experiments:
Format in all cases: functional, Homo sapiens
TERT-RPE1 = experiment: (§1) Here: values are normalized to the negative (DMSO; defined as 0% autophagy induction) and positive (250nM Torin1; mTOR inhibitor; defined as maximal inducer of autophagy = 100%) control compounds and represented as % of autophagy induction. […] The impact of autophagy induction on cells is complex and depends on the affected target. As such, the magnitude of a phenotype may not be equally mirrored in the %-value of autophagy induction and vice versa. The dynamics of the induction may indicate the mode of activation: e.g. activation via phosphorylation or a signaling cascade may occur fast, while activation via transcription factors may take considerably longer. […] Of note, treatment concentrations may be sub-optimal for specific compounds, leading to false negative annotations.; conditions: Culturing Media DMEM/F12 (1:1), 1 % Penicillin/Streptomycin, 10% Fetal bovin serum Add-On: No, Screening Media Control DMEM/F12 (1:1), Screening Media Samples DMEM/F12 (1:1)
U2OS [1] = experiment: as §1; conditions: Culturing Media DMEM, 1 % Penicillin/Streptomycin, 10% Fetal bovin serum Add-On: No, Screening Media Control DMEM, Screening Media Samples DMEM
U2OS [2] = experiment: as §1; conditions: Culturing Media DMEM, 1 % Penicillin/Streptomycin, 10% Fetal bovin serum Add-On: No, Screening Media Control DMEM, Screening Media Samples DMEM; remark: listed apart in the source
[3] = Compound Concentration 0.5 uM, Timepoint 12 hours, 12 h, 0.5 µM
[4] = Compound Concentration 0.5 uM, Timepoint 24 hours, 24 h, 0.5 µM
[5] = Compound Concentration 0.5 uM, Timepoint 36 hours, 36 h, 0.5 µM
[6] = Compound Concentration 0.5 uM, Timepoint 60 hours, 60 h, 0.5 µM
[7] = Compound Concentration 2 uM, Timepoint 24 hours, 24 h, 2 µM
[8] = Compound Concentration 2 uM, Timepoint 36 hours, 36 h, 2 µM
[9] = Compound Concentration 2 uM, Timepoint 60 hours, 60 h, 2 µM
[10] = Compound Concentration 10 uM, Timepoint 12 hours, 12 h, 10 µM
[11] = Compound Concentration 0.5 uM, Timepoint 12 hours
[12] = Compound Concentration 0.5 uM, Timepoint 24 hours
[13] = Compound Concentration 0.5 uM, Timepoint 36 hours
[14] = Compound Concentration 0.5 uM, Timepoint 60 hours
[15] = Compound Concentration 2 uM, Timepoint 12 hours
[16] = Compound Concentration 2 uM, Timepoint 24 hours
[17] = Compound Concentration 2 uM, Timepoint 36 hours
[18] = Compound Concentration 2 uM, Timepoint 60 hours
[19] = Compound Concentration 10 uM, Timepoint 12 hours
[20] = Compound Concentration 10 uM, Timepoint 24 hours
[21] = Compound Concentration 10 uM, Timepoint 36 hours
[22] = Compound Concentration 10 uM, Timepoint 60 hours
[23] = Compound Concentration 2 uM, Timepoint 12 hours, 12 h, 2 µM
[24] = Compound Concentration 10 uM, Timepoint 24 hours, 24 h, 10 µM
[25] = Compound Concentration 10 uM, Timepoint 36 hours, 36 h, 10 µM
[26] = Compound Concentration 10 uM, Timepoint 60 hours, 60 h, 10 µM

Structure (SMILES)	autophagy induction (TERT-RPE1; [3])	autophagy induction (TERT-RPE1; [4])	autophagy induction (TERT-RPE1; [5])	autophagy induction (TERT-RPE1; [6])	autophagy induction (TERT-RPE1; [7])	autophagy induction (TERT-RPE1; [8])	autophagy induction (TERT-RPE1; [9])	autophagy induction (TERT-RPE1; [10])	autophagy induction (U2OS [1]; [11]) [%]	autophagy induction (U2OS [1]; [12]) [%]	autophagy induction (U2OS [1]; [13]) [%]	autophagy induction (U2OS [1]; [14]) [%]	autophagy induction (U2OS [1]; [15]) [%]	autophagy induction (U2OS [1]; [16]) [%]	autophagy induction (U2OS [1]; [17]) [%]	autophagy induction (U2OS [1]; [18]) [%]	autophagy induction (U2OS [1]; [19]) [%]	autophagy induction (U2OS [1]; [20]) [%]	autophagy induction (U2OS [1]; [21]) [%]	autophagy induction (U2OS [1]; [22]) [%]	further results
CCCNS(=O)(=O)Nc1ncnc(OCCOc2ncc(Br)cn2)c1-c1ccc(Br)cc1	-0.7197% and -7.3982%	0.659% and -8.96%	-3.018% and -8.201%	-5.286% and -10.1731%	-0.7464% and 17.5664%	-1.802% and 12.9792%	-3.01% and 8.651%	-3.714% and 17.3261%	-3.964	-4.032	-61.3535	-1.132	-0.4685	-1.227	-59.7666	-0.5161	11.7925	5.282	-57.2377	-0.5877	autophagy induction (U2OS [2]; [11]): 2.901%; autophagy induction (U2OS [2]; [12]): -2.846%; autophagy induction (U2OS [2]; [13]): 0.07503%; autophagy induction (U2OS [2]; [14]): -9.912%; autophagy induction (U2OS [2]; [15]): 12.0444%; autophagy induction (U2OS [2]; [16]): 9.078%; autophagy induction (U2OS [2]; [17]): 7.396%; autophagy induction (U2OS [2]; [18]): -1.934%; autophagy induction (U2OS [2]; [19]): 26.4347%; autophagy induction (U2OS [2]; [20]): 18.1089%; autophagy induction (U2OS [2]; [21]): 17.8738%; autophagy induction (U2OS [2]; [22]): 1.732%
FC(F)(F)c1cccc(-c2noc(-c3cc(-c4ccccc4)c(C(F)(F)F)s3)n2)c1	1.977% and -3.815%	1.344% and -4.458%	0.88% and -7.47%	-0.5412% and -7.068%	4.894% and -1.63%	2.202% and -4.099%	3.847% and -8.453%	-16.4913% and 2.616%	-1.1495	-3.455	-61.0771	-1.369	-1.566	-3.4743	-60.4788	-1.735	-17.6781	-7.308	-61.2616	-2.196	autophagy induction (TERT-RPE1; [23]): 8.025% and -0.7273%; autophagy induction (TERT-RPE1; [24]): -1.867% and 1.296%; autophagy induction (TERT-RPE1; [25]): 1.745% and 2.594%; autophagy induction (U2OS [2]; [11]): 9.021%; autophagy induction (U2OS [2]; [12]): 3.382%; autophagy induction (U2OS [2]; [13]): -0.06707%; autophagy induction (U2OS [2]; [14]): -12.3398%; autophagy induction (U2OS [2]; [15]): 0.8817%; autophagy induction (U2OS [2]; [16]): -10.2337%; autophagy induction (U2OS [2]; [17]): -8.601%; autophagy induction (U2OS [2]; [18]): -22.9781%; autophagy induction (U2OS [2]; [19]): -28.6388%; autophagy induction (U2OS [2]; [20]): -12.6195%; autophagy induction (U2OS [2]; [21]): -3.849%; autophagy induction (U2OS [2]; [22]): -3.37%
O=C(O)CC1CCC2(CC1)CCN(c1cc(OC(F)(F)F)ccc1Cl)CC2	1.5088% and -4.208%	-1.371% and -2.379%	-4.319% and -4.033%	-5.803% and -6.663%	2.312% and -6.096%	-2.505% and -8.733%	-5.7463% and -9.633%	5.943% and -1.866%	6.893	1.231	-59.5433	-1.659	4.528	2.023	-58.8057	0.09301	1.476	-1.647	-59.8779	-1.029	autophagy induction (TERT-RPE1; [23]): 7.834% and -3.775%; autophagy induction (TERT-RPE1; [24]): 5.6585% and -2.656%; autophagy induction (TERT-RPE1; [25]): 3.294% and -3.964%; autophagy induction (TERT-RPE1; [26]): -1.174% and -1.531%; autophagy induction (U2OS [2]; [11]): -7.253%; autophagy induction (U2OS [2]; [12]): -0.0788%; autophagy induction (U2OS [2]; [13]): -0.8569%; autophagy induction (U2OS [2]; [14]): -4.709%; autophagy induction (U2OS [2]; [15]): -6.392%; autophagy induction (U2OS [2]; [16]): -5.775%; autophagy induction (U2OS [2]; [17]): -5.315%; autophagy induction (U2OS [2]; [18]): -3.59%; autophagy induction (U2OS [2]; [19]): -7.404%; autophagy induction (U2OS [2]; [20]): -7.084%; autophagy induction (U2OS [2]; [21]): -0.9405%; autophagy induction (U2OS [2]; [22]): -11.9422%
COc1ccc(NS(=O)(=O)c2sc3ccc(Cl)cc3c2C)cc1N1CCNCC1.Cl	-2.268% and 1.364%	-0.6721% and -2.131%	-2.429% and -0.9432%	-2.224% and -1.994%	2.1639% and -0.4459%	0.7328% and -1.399%	3.483% and -0.5872%	10.6024% and -4.741%	2.987	-0.6318	-59.945	-1.761	6.036	-0.4148	-59.1656	-2.731	1.788	0.7642	-61.0668	-6.058	autophagy induction (TERT-RPE1; [23]): 1.355% and 0.7844%; autophagy induction (TERT-RPE1; [24]): 10.2969% and -5.794%; autophagy induction (TERT-RPE1; [25]): 13.8741% and -5.163%; autophagy induction (TERT-RPE1; [26]): 16.669% and -5.902%; autophagy induction (U2OS [2]; [11]): -11.3104%; autophagy induction (U2OS [2]; [12]): -5.358%; autophagy induction (U2OS [2]; [13]): -7.917%; autophagy induction (U2OS [2]; [14]): -7.314%; autophagy induction (U2OS [2]; [15]): 6.008%; autophagy induction (U2OS [2]; [16]): 2.399%; autophagy induction (U2OS [2]; [17]): -3.71%; autophagy induction (U2OS [2]; [18]): -14.5759%; autophagy induction (U2OS [2]; [19]): 10.7956%; autophagy induction (U2OS [2]; [20]): 3.064%; autophagy induction (U2OS [2]; [21]): -4.691%; autophagy induction (U2OS [2]; [22]): -6.499%
